Experiments:
WNV (WN-hRuPac cells) = assay: WNV antiviral activity, WN-hRuPac cells, Renilla luciferase; format: cell-based, West Nile virus; conditions: for EC50 / inhibition at 25 µM: West Nile virus; for EC50: Secondary Data, WNV, read-out: WNV EC50; for inhibition at 25 µM: primary screening, 25 μM final concentration, 24 hours, percent inhibition of viral replication, read-out: WNV Inh; for WNV TI: therapeutic index CC50/EC50, WNV
SINV (SR19-F-luc cells) = assay: SINV antiviral activity, SR19-F-luc cells, Firefly luciferase; format: cell-based; conditions: Sindbis virus; for inhibition at 25 µM: primary screening, 25 μM final concentration, 24 hours, percent inhibition of viral replication, read-out: SINV Inh; for EC50: secondary screening, SR19-F-luc cells
EBOV minigenome = assay: microbe, parasite or virus in culture; format: cell-based, Ebola virus; conditions: Zaire ebolavirus; for inhibition at 25 µM: 24 h, read-out: EBOV Inh; for EC50: read-out: EBOV EC50
RSV minigenome = assay: RSV minigenome-dependent β-galactosidase expression assay (RSV β-Gal); format: cell-based, respiratory syncytial virus; conditions: for EC50 / inhibition at 25 µM: human respiratory syncytial virus; for EC50: Secondary Data, RSV, read-out: RSV EC50; for inhibition at 25 µM: primary screening, 25 μM final concentration, 24 hours, percent inhibition of viral replication, read-out: RSV Inh; for RSV TI: therapeutic index CC50/EC50, RSV
DNG (D2-hRuPac cells) = assay: DNG antiviral activity, D2-hRuPac cells, Renilla luciferase; format: cell-based, Dengue fever virus; conditions: Dengue virus, secondary screening
YFV (YF-hRuPac cells) = assay: microbe, parasite or virus in culture; format: cell-based, yellow fever virus; conditions: for inhibition at 25 µM / EC50: Yellow fever virus; for inhibition at 25 µM: 24 h, read-out: YFV Inh; for EC50: read-out: YFV EC50
[1] = tested on: HCV replicon (Clone A cells, Huh7, subgenomic hepatits C virus RNA); assay: HCV Neo screening assay (HCV replicon, NPTII ELISA); format: cell-based, hepatitis C virus; conditions: for EC50 / inhibition at 25 µM: Hepatitis C virus, Huh-7; for EC50: Secondary Data, HCV; for inhibition at 25 µM: primary screening, 25 μM final concentration, 24 hours, percent inhibition of viral replication, read-out: HCV Inh; for HCV TI: therapeutic index CC50/EC50, HCV

SMILES	EC50 (WNV (WN-hRuPac cells))	inhibition at 25 µM (WNV (WN-hRuPac cells))	WNV TI (WNV (WN-hRuPac cells))	inhibition at 25 µM (SINV (SR19-F-luc cells))	EC50 (SINV (SR19-F-luc cells))	CC50 (in vitro; DNG CC50)	CC50 (in vitro; EBOV CC50)	CC50 (in vitro; HCV CC50)	CC50 (in vitro; RSV CC50)	CC50 (in vitro; SINV CC50)	CC50 (in vitro; WNV CC50)	CC50 (in vitro; YFV CC50)	inhibition at 25 µM (EBOV minigenome)	EC50 (EBOV minigenome)	EC50 (RSV minigenome)	inhibition at 25 µM (RSV minigenome)	RSV TI (RSV minigenome)	EC50 (DNG (D2-hRuPac cells))	YFV TI (YFV (YF-hRuPac cells))	inhibition at 25 µM (YFV (YF-hRuPac cells))	other results
COC(=O)c1ccc(Nc2c3c(nc4ccccc24)CCC3)cc1 [Compound 8]	59.1 µM	49%	1.27	34.9%	24.2 µM	≥ 75 µM	≥ 75 µM	71.6 µM	≥ 75 µM	≥ 75 µM	≥ 75 µM	≥ 75 µM	4.74%	54.5 µM	9.7 µM	75.5%	7.73	61.5 µM	2.91	66.8%	EC50 (YFV (YF-hRuPac cells)): 25.8 µM; EC50 [1]: 0.13 µM; inhibition at 25 µM [1]: 98.9%; HCV TI [1]: 550.77
Cc1ccc(Nc2cc(C)nc3c2ccc2ccccc23)cc1 [Compound 9]	30.6 µM	33.4%	2.38	48.2%	≥ 75 µM	73 µM	73 µM	9.83 µM	73 µM	73 µM	73 µM	73 µM	-17.1%	61.5 µM	4.1 µM	88.2%	17.8	≥ 75 µM	13.51	76.2%	EC50 (YFV (YF-hRuPac cells)): 5.4 µM; EC50 [1]: 1.77 µM; inhibition at 25 µM [1]: 98.3%; HCV TI [1]: 5.55
c1coc(CNc2c3c(nc4ccccc24)CCC3)c1 [Compound 10]	9.79 µM	81.2%	5.97	15.9%	69.9 µM	58.5 µM	58.5 µM	47.6 µM	58.5 µM	58.5 µM	58.5 µM	58.5 µM	38.1%	43.2 µM	2.51 µM	99.6%	23.29	24.7 µM	4.06	86.2%	EC50 (YFV (YF-hRuPac cells)): 14.4 µM; inhibition at 25 µM [1]: 34.6%
C=CCNc1c2c(nc3ccccc13)CCC2 [Compound 12]	19.5 µM	47.5%	3.68	69.4%	6.89 µM	71.7 µM	71.7 µM	71 µM	71.7 µM	71.7 µM	71.7 µM	71.7 µM	49.8%	45.4 µM	6.42 µM	31%	11.17	69.2 µM	1.17	31.3%	EC50 (YFV (YF-hRuPac cells)): 61.2 µM; inhibition at 25 µM [1]: 10.3%
CCOC(=O)c1ccc2ncc(C(=O)OCC)c(NCc3ccco3)c2c1 [Compound 13]	4.78 µM	98%	7.4	-12.1%	44.5 µM	35.4 µM	35.4 µM	≥ 75 µM	35.4 µM	35.4 µM	35.4 µM	35.4 µM	59%	6.03 µM	2.93 µM	92.1%	12.07	10.5 µM	3.98	89.5%	EC50 (YFV (YF-hRuPac cells)): 8.88 µM; inhibition at 25 µM [1]: 27.4%
COC(=O)c1ccc(Nc2cc(C)nc3cc(Cl)ccc23)cc1 [Compound 14]	≥ 75 µM	51.6%	0.72	56.7%	17.6 µM	53.7 µM	53.7 µM	≥ 75 µM	53.7 µM	53.7 µM	53.7 µM	53.7 µM	-19.5%	65.6 µM	36.9 µM	48.4%	1.46	54.3 µM	5.82	54.6%	EC50 (YFV (YF-hRuPac cells)): 9.23 µM; EC50 [1]: 1.3 µM; inhibition at 25 µM [1]: 81.2%; HCV TI [1]: 57.69
Cc1ccc2nc(C)cc(N3CCC(C)CC3)c2c1 [Compound 15]	≥ 75 µM	55.9%	0.97	72%	5.58 µM	72.9 µM	72.9 µM	35.7 µM	72.9 µM	72.9 µM	72.9 µM	72.9 µM	49.2%	71.1 µM	7.34 µM	72.6%	9.94	71.9 µM	1.57	37.5%	EC50 (YFV (YF-hRuPac cells)): 46.4 µM; inhibition at 25 µM [1]: 45.1%
Cc1ccc2nc3c(c(Nc4ccc(O)cc4)c2c1)CCC3 [Compound 16]	13.1 µM	66.8%	2.61	79.5%	1.52 µM	34.1 µM	34.1 µM	33.5 µM	34.1 µM	34.1 µM	34.1 µM	34.1 µM	7.83%	29.9 µM	7.1 µM	88.5%	4.81	9.44 µM	1.63	75.9%	EC50 (YFV (YF-hRuPac cells)): 21 µM; EC50 [1]: 9 µM; inhibition at 25 µM [1]: 119%; HCV TI [1]: 3.72

From patent publication US20090221624A1, “4-AMINOQUINOLINE COMPOUNDS FOR TREATING VIRUS-RELATED CONDITIONS” (priority 2005, published 2009)
